Data published in US20250186604A1, “ANTI-PSMA ANTIBODY CONJUGATES” (ADC THERAPEUTICS SA, priority 2023, published 2025).
Starred links: 1 amine or outer side, 2 acyl side, 3 side chain; linkers in the order of their positions; H or OH if unused. Non-standard residues stand in square brackets, D forms with d. Residues, ends and D or L forms follow the SMILES beside them. *: point of attachment. Exatecan = CC[C@@]1(O)C(=O)OCc2c1cc1n(c2=O)Cc2c-1nc1cc(F)c(C)c3c1c2[C@@H](N*)CC3; Propanoyl(3-maleimido) = O=C1C=CC(=O)N1CCC(=O)*; PABC = O=C(OCc1ccc(N[*:1])cc1)[*:2]

How the values were obtained:
topo I/DNA complex = biological target: T1, topo I/DNA complex (Homo sapiens, UniProt P11387); conditions: versus SN38 (the active metabolite of irinotecan); cited from earlier work
T1 sequence (P11387 1-765): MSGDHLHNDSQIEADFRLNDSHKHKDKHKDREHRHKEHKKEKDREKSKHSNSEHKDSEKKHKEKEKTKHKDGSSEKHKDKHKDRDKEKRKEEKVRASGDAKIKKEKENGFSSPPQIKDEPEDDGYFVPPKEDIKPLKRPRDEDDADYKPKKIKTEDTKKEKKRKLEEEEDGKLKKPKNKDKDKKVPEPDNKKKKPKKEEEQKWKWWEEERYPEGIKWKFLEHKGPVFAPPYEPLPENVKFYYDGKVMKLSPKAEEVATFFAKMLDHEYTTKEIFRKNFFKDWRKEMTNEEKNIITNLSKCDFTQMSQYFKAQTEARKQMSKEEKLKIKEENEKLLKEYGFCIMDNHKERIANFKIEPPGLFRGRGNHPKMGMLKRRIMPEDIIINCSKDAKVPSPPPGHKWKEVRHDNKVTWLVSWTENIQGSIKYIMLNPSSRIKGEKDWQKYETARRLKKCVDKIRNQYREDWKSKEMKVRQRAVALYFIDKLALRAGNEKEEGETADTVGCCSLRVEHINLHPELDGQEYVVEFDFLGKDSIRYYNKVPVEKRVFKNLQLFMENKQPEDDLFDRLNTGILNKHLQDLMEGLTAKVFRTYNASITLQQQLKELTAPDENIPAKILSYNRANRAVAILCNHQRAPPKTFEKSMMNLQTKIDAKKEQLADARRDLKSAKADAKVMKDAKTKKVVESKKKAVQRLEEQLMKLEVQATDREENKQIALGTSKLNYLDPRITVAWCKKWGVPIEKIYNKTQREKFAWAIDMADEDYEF

a variety of cell lines = conditions: versus SN38; cited from earlier work
[1] = RP-HPLC retention time correlated with hydrophobicity; format: physicochemical; conditions: high Rt = hydrophobic, low Rt = hydrophilic
Procedure: • Column: Phenomenex Gemini NX 5 m, C18, 110Å, 150×4.6 mm • Instrument: Shimadzu LC-2030 • Mobile phase: A) water (0.05% TFA), B) acetonitrile (0.05% TFA) • Gradient: 20-70% B over 15 min, flow 1.0 mL/min
A correlation study was also carried out using Reverse-Phase HPLC (RP-HPLC). The two constructs were injected in RP-HPLC and retention times (Rt) correlated with hydrophobicity—i.e., high Rt was associated to hydrophobic constructs whereas low Rt to hydrophilic ones.

[2] = Aggregation during conjugation to a test antibody (% monomer by SEC); format: physicochemical; conditions: drug linker conjugated to a test antibody
Procedure: 2 mg of a test monoclonal antibody at 8.87 mg/ml was pH adjusted with 5% 0.5 M Tris, 0.025 M EDTA, pH 8.5 and reduced with 2.3 mol. eq. TCEP and then conjugated with 6mol. eq. drug linker. After buffer exchange into 30 mM Histidine, 175 mM Sucrose pH 6.0/PBS, the drug to antibody ratio (DAR) was by HIC/LC-MS and % Monomer by size exclusion chromatography (SEC). Percentage monomer values of 95% or greater are assessed as low aggregation.
Aggregation levels were assessed during the conjugation to a test antibody. Conjugation was performed as described above for ADC-1.
During conjugation, we are ideally targeting a monomer content or percentage monomer of 95% or above. Low percentage monomer values usually translate to a higher degree of aggregation. One could therefore agree that percentage monomer values of 95% or higher mean very low levels of aggregation or none, whereas values below this threshold often translate to higher levels of aggregation.

## CC[C@@]1(O)C(=O)OCc2c1cc1n(c2=O)Cc2c-1nc1cc(F)c(C)c3c1c2[C@@H](N)CC3 [Exatecan]
Topo I/DNA complex
  potency relative to SN38 at stabilizing the topo I/DNA complex: about 2.5 fold
A variety of cell lines
  potency relative to SN38 as a cytotoxin: about 2.5 fold

## CC[C@@]1(O)C(=O)OCc2c1cc1n(c2=O)Cc2c-1nc1cc(F)c(C)c3c1c2[C@@H](NC(=O)OCc1ccc(NC(=O)[C@H](C)NC(=O)[C@@H](NC(=O)CNC(=O)CNC(=O)CNC(=O)CNC(=O)CNC(=O)CCN2C(=O)C=CC2=O)C(C)C)cc1)CC3 [Mal-Gly5-VA-PABC-Exatecan] ({Propanoyl(3-maleimido)}-GGGGGVA[PABC]-Exatecan)
[1]
  Rt: 9.76 min
[2]; SEC, 95% or greater = low aggregation
  Aggregation (% monomer): (98%)
[2]; grade in words
  Aggregation: None
